*1 amine or outer side, *2 acyl side, *3 side chain or, on linkers, in order; H or OH if unused. Where a SMILES comes first, the peptide text is derived from it. Bridges are numbered along the chain shown (N, C = ends). [ ]: non-standard residue; d: D form. Phe(4-guanidino) = N=C(N)Nc1ccc(C[C@H](N)C(=O)O)cc1; X44 = C[C@@H](c1ccccc1)[C@@H](C(=O)[*:2])N(C)[*:1]; X19 = C[C@H](c1ccccc1)[C@@H](C(=O)[*:2])N(C)[*:1]; Ala(pyrimidin-5-yl) = N[C@@H](Cc1cncnc1)C(=O)O; X8 = CN([C@@H](Cc1ccc(F)nc1)C(=O)[*:2])[*:1]; X39 = CN([C@@H](Cc1cccnc1F)C(=O)[*:2])[*:1]; X43 = CN([C@@H](Cc1cnccc1F)C(=O)[*:2])[*:1]; X45 = CN([C@@H](Cc1ccncc1F)C(=O)[*:2])[*:1]; X11 = CC(C)(F)CC[C@H](N[*:1])C(=O)[*:2]; Phe(2-F) = N[C@@H](Cc1ccccc1F)C(=O)O; X1 = O=C(C12CC(CN[*:1])(C1)C2)[*:2]; NMeLys(Me) = CNCCCC[C@H](NC)C(=O)O; Ala(cPr) = N[C@@H](CC1CC1)C(=O)O; NMeF = CN[C@@H](Cc1ccccc1)C(=O)O; PhLac = O=C(O)[C@@H](O)Cc1ccccc1; Ahp(2) = CCCCC[C@H](N)C(=O)O; Cba = N[C@@H](CC1CCC1)C(=O)O; hLeu = CC(C)CC[C@H](N)C(=O)O; αMeC = C[C@](N)(CS)C(=O)O; NMeA = CN[C@@H](C)C(=O)O
Molecular target: phosphorylation levels of ERK1/2 in AsPC-1 (homozygous KRAS-G12D) cells (Homo sapiens, UniProt P01116, G12D)
Sequence (P01116 1-186 G12D): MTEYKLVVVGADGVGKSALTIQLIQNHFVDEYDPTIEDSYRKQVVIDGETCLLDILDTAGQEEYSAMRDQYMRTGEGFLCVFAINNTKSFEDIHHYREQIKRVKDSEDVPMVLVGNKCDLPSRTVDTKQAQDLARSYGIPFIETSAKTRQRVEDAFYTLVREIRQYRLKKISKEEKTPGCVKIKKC
Assay: Cellular phospho-ERK assay in AsPC-1 cells (Alpha Screen), assay medium without fetal bovine serum;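 also: signal taken as phospho-ERK over total ERK per well, both detected in one multiplex bead assay, EC50 from four-parameter logistic fit of dose-response curves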
Assay type: cell-based
Settings: phospho-ERK AlphaScreen, 18 h

SMILES	EC50 [nM]
CC(C)CC[C@@H]1NC(=O)[C@H](Cc2ccccc2F)NC(=O)[C@H](CC2CC2)NC(=O)[C@H](Cc2cncnc2)NC(=O)[C@H](C)N(C)C(=O)[C@H](Cc2ccccc2)OC(=O)C23CC(CNC(=O)[C@H](Cc4cccnc4F)N(C)C1=O)(C2)C3 [compound 336, cyclo(FLac-NMeA-PyrimAla-cPrA-Phe2F-hL-NMe3Pal2F-amBCP)] (cyclo([Ala(cPr)][Phe(2-F)][hLeu][X39][X1][PhLac][NMeA][Ala(pyrimidin-5-yl)]))	1390
CC(C)CC[C@@H]1NC(=O)[C@H](Cc2ccccc2F)NC(=O)[C@H](CC2CC2)NC(=O)[C@H](Cc2cncnc2)NC(=O)[C@H](C)N(C)C(=O)[C@H](Cc2ccccc2)OC(=O)C23CC(CNC(=O)[C@H](Cc4ccncc4F)N(C)C1=O)(C2)C3 [compound 337, cyclo(FLac-NMeA-PyrimAla-cPrA-Phe2F-hL-NMe4Pal2F-amBCP)] (cyclo([Ala(cPr)][Phe(2-F)][hLeu][X45][X1][PhLac][NMeA][Ala(pyrimidin-5-yl)]))	3350
CC(C)CC[C@@H]1NC(=O)[C@H](Cc2ccccc2F)NC(=O)[C@H](CC2CC2)NC(=O)[C@H](Cc2cncnc2)NC(=O)[C@H](C)N(C)C(=O)[C@H](Cc2ccccc2)OC(=O)C23CC(CNC(=O)[C@H](Cc4cnccc4F)N(C)C1=O)(C2)C3 [compound 338, cyclo(FLac-NMeA-PyrimAla-cPrA-Phe2F-hL-NMe3Pal6F-amBCP)] (cyclo([Ala(cPr)][Phe(2-F)][hLeu][X43][X1][PhLac][NMeA][Ala(pyrimidin-5-yl)]))	1860
CC(C)CC[C@@H]1NC(=O)[C@H](Cc2ccccc2F)NC(=O)[C@H](CC2CC2)NC(=O)[C@H](Cc2cncnc2)NC(=O)[C@H](C)N(C)C(=O)[C@H](Cc2ccccc2)OC(=O)C23CC(CNC(=O)[C@H](Cc4ccc(F)nc4)N(C)C1=O)(C2)C3 [compound 339, cyclo(FLac-NMeA-PyrimAla-cPrA-Phe2F-hL-NMe3Pal4F-amBCP)] (cyclo([Ala(cPr)][Phe(2-F)][hLeu][X8][X1][PhLac][NMeA][Ala(pyrimidin-5-yl)]))	1650
C[C@@H](c1ccccc1)[C@H]1C(=O)NCC23CC(C2)(C3)C(=O)O[C@@H](Cc2ccccc2)C(=O)N(C)[C@@H](C)C(=O)N[C@@H](Cc2cncnc2)C(=O)N[C@@H](CC2CC2)C(=O)N[C@@H](Cc2ccccc2F)C(=O)N[C@@H](CCC(C)(C)F)C(=O)N1C [compound 340, cyclo(FLac-NMeA-PyrimAla-cPrA-Phe2F-hL3F-NMeSbMeF-amBCP)] (cyclo([Ala(cPr)][Phe(2-F)][X11][X44][X1][PhLac][NMeA][Ala(pyrimidin-5-yl)]))	4250
C[C@H](c1ccccc1)[C@H]1C(=O)NCC23CC(C2)(C3)C(=O)O[C@@H](Cc2ccccc2)C(=O)N(C)[C@@H](C)C(=O)N[C@@H](Cc2cncnc2)C(=O)N[C@@H](CC2CC2)C(=O)N[C@@H](Cc2ccccc2F)C(=O)N[C@@H](CCC(C)(C)F)C(=O)N1C [compound 341, cyclo(FLac-NMeA-PyrimAla-cPrA-Phe2F-hL3F-NMeRbMeF-amBCP)] (cyclo([Ala(cPr)][Phe(2-F)][X11][X19][X1][PhLac][NMeA][Ala(pyrimidin-5-yl)]))	> 50800
CCCCC[C@@H]1NC(=O)[C@H](Cc2ccc(OC)cc2)NC(=O)[C@H](CC2CCC2)NC(=O)[C@H](Cc2ccc(NC(=N)N)cc2)NC(=O)[C@H](CCCCNC)N(C)C(=O)[C@H](Cc2ccccc2)NC(=O)CSC[C@@](C)(C(N)=O)NC(=O)[C@H](Cc2ccccc2)N(C)C1=O [compound 360, cyclo(F-NMeLysMe-Phe4Gn-cBuA-TyrOMe-Ahp-NMeF-aMeCl-ClAc)] ({CH2CO}-F[NMeLys(Me)][Phe(4-guanidino)][Cba]Y(Me)[Ahp(2)][NMeF][αMeC]-NH2; thioether N-8)	> 50800

— US20260001914A1, “MACROCYCLIC PEPTIDES TARGETING KRAS” (Merck Sharp & Dohme LLC, priority 2022, published 2026)
